Assay results taken from patent US12054765B2, “Phytopathogenic fungus detecting apparatus, and detecting method and method for selecting concentration of agricultural chemical using same” (Panasonic Intellectual Property Management Co., Ltd., priority 2018, dated 2024).

Test system: Botrytis cinerea
Test: Hyphal growth of Botrytis cinerea in agricultural-chemical three-concentration-level layers-stacked culture media
Assay type: cell-based
Conditions: 25 degrees Celsius, seven days; for hyphae of Botrytis cinerea in the culture medium layer (microscope observation from side surface): potato dextrose agar
Excerpt: Botrytis cinerea that is one type of phytopathogenic fungus and a pathogenic fungus of tomato gray mold disease was inoculated into a potato dextrose agar culture medium (Difco (registered trademark) Potato Dextrose Agar). Next, the culture medium was left to stand still at a temperature of 25 degrees Celsius for one week. […] Next, the Botrytis cinerea-cultured potato dextrose agar culture medium in which hyphae sufficiently grew was left under irradiation with black light for not less than four days and left in a room-temperature environment for not less than two weeks to promote spore formation. […] Hereinafter, this aqueous solution is referred to as an “aqueous phytopathogenic fungus solution”.
Agricultural-chemical main-ingredient reagent Captan (manufactured by Tokyo Chemical Industry Co., Ltd. (TCI)) was added to potato dextrose agar culture media, with a charging amount (concentration) changed, to produce three layers of original culture media. Captan was prepared into a dimethyl sulfoxide (DMSO) (manufactured by SIGMA-ALDRICH) solution of Captan at a concentration 100 times a standard use concentration. The solution was charged into and mixed with the potato dextrose agar culture media respectively in amounts of 0 ml, 2 ml, and 10 ml per 1 L of the potato dextrose agar culture media to make three-concentration-level culture media respectively at a Captan concentration of 0 (no blending) and in an amount ⅕ a standard use amount of Captan and the standard use amount. In the present example, the potato dextrose agar culture media containing Captan at three concentration levels were stacked from bottom in an order of the Captan standard amount culture medium, the culture medium in an amount ⅕ the Captan standard amount, and the medium with no Captan blended, and the stacked body was cut out with a glass cylindrical, square, or rectangular shape forming member into a device of the example. […]

O=C1C2CC=CCC2C(=O)N1SC(Cl)(Cl)Cl (stereo not drawn) [Captan]
amount at which an effect against Botrytis cinerea was exerted (effective concentration) (layer where hyphal growth stopped): ⅕ | hyphae of Botrytis cinerea in the culture medium layer (microscope observation from side surface) (lower layer 64, Captan blended in the standard amount): No hypha was confirmed | hyphae of Botrytis cinerea in the culture medium layer (microscope observation from side surface) (second layer 63, Captan blended in the amount ⅕ the standard use amount): no hypha of Botrytis cinerea was confirmed
